Assay results as given in patent publication EP0533925A1, “OPTICAL ISOMER OF R-FORM OF DIPHENYL ETHER DERIVATIVE AND HERBICIDE CONTAINING THE SAME AS ACTIVE INGREDIENT” (TEIJIN LIMITED, priority 1990, dated 1991).

Columns and labels:
Assay in all cases: Herbicidal activity, foliar application of single compounds (Test Examples 1 to 5)
Format in all cases: in vivo
Set-up in all cases: key: 0 means the state where the plants are as sound as before the application of the active compound; 1, 2, 3 and 4 mean varying degrees of the enfeebled state of the plants between 0 and 5; 1, 2, 3 and 4 mean varying degrees of the enfeebled state of the plants between 0 and 5; 1, 2, 3 and 4 mean varying degrees of the enfeebled state of the plants between 0 and 5; 1, 2, 3 and 4 mean varying degrees of the enfeebled state of the plants between 0 and 5; 5 is the state where the plants are withered or killed by application of the active compound
Details in all cases: 3 weeks after application
[1] = system: Chenopodium album var. centrorubrum
Description: (§1) In these examples, all parts means parts by weight, unless otherwise noted. The herbicidal activity was evaluated on a scale of 6 degrees. In other words, 0 means the state where the plants are as sound as before the application of the active compound, while 5 is the state where the plants are withered or killed by application of the active compound, and 1, 2, 3 and 4 mean varying degrees of the enfeebled state of the plants between 0 and 5.
(§2) The diphenyl ethers shown in Table 2 were added to 5000 parts of a mixture of acetone and water (1 : 1 by volume), and 2.6 parts of a nonionic surfactant (Sorpol 2680, tradename) was added to form a solution, so that the ether becomes the prescribed amount in each solution.
(§3) Seeds of plants were sown in the soil, cultivated for 2 to 3 weeks, after germination, then the plants were used for the tests.
(§4) The prepared solution was applied to these plants at the prescribed rate of application in total, then the plants were continuously cultivated for 3 weeks without applying the solution.
(§5) The alphabetical symbols in Tables 2 and 3 represent the following plants, respectively: a: Digitaria adscendens b: Setaria viridis c: Sorghum halepense d: Chenopodium album var. centrorubrum e: Amaranthus mangostanus f: Astragalus sinicus g: Abutilon theophrosti h: Solanum nigrum i: Xanthium strumarium j: Soybean; Glycine max k: Corn; Zea mays Table 2

Soybean; Glycine max = system: Soybean; Glycine max
Description: as §1, §2, §3, §4, §5

Astragalus sinicus = system: Astragalus sinicus
Description: as §1, §2, §3, §4, §5

Abutilon theophrosti = system: Abutilon theophrosti
Description: as §1, §2, §3, §4, §5

Xanthium strumarium = system: Xanthium strumarium
Description: as §1, §2, §3, §4, §5

Corn; Zea mays = system: Corn; Zea mays
Description: as §1, §2, §3, §4, §5

Solanum nigrum = system: Solanum nigrum
Description: as §1, §2, §3, §4, §5

Sorghum halepense = system: Sorghum halepense
Description: as §1, §2, §3, §4, §5

Digitaria adscendens = system: Digitaria adscendens
Description: as §1, §2, §3, §4, §5

Amaranthus mangostanus = system: Amaranthus mangostanus
Description: as §1, §2, §3, §4, §5

Setaria viridis = system: Setaria viridis
Description: as §1, §2, §3, §4, §5

[2] = Rate of Application 0.008 kg/ha
[3] = Rate of Application 0.031 kg/ha
[4] = Rate of Application 0.016 kg/ha

CCOC(=O)C(C)Oc1cc(Oc2ncc(C(F)(F)F)cc2Cl)ccc1C#N (stereo not drawn) [(37), Ethyl α-[2-cyano-5-(3-chloro-5-trifluoromethyl-2-pyridyloxy)phenoxy]propionate]
herbicidal activity, Plants d [1, 2]: 3
herbicidal activity, Plants d [1, 3]: 5
herbicidal activity, Plants j (Soybean; Glycine max; [2]): 3
herbicidal activity, Plants j (Soybean; Glycine max; [3]): 4
herbicidal activity, Plants f (Astragalus sinicus; [2]): 3
herbicidal activity, Plants f (Astragalus sinicus; [3]): 4
herbicidal activity, Plants g (Abutilon theophrosti; [2]): 5
herbicidal activity, Plants g (Abutilon theophrosti; [3]): 5
herbicidal activity, Plants i (Xanthium strumarium; [2]): 4
herbicidal activity, Plants i (Xanthium strumarium; [3]): 5
herbicidal activity, Plants k (Corn; Zea mays; [2]): 2
herbicidal activity, Plants k (Corn; Zea mays; [3]): 3
herbicidal activity, Plants h (Solanum nigrum; [2]): 4
herbicidal activity, Plants h (Solanum nigrum; [3]): 4
herbicidal activity, Plants c (Sorghum halepense; [2]): 3
herbicidal activity, Plants c (Sorghum halepense; [3]): 5
herbicidal activity, Plants a (Digitaria adscendens; [2]): 3
herbicidal activity, Plants a (Digitaria adscendens; [3]): 4
herbicidal activity, Plants e (Amaranthus mangostanus; [2]): 5
herbicidal activity, Plants e (Amaranthus mangostanus; [3]): 5
herbicidal activity, Plants b (Setaria viridis; [2]): 3
herbicidal activity, Plants b (Setaria viridis; [3]): 4

CCCCOC(=O)C(C)Oc1cc(Oc2ccc(C(F)(F)F)cc2Cl)ccc1C#N (stereo not drawn) [(3), n-Butyl α-[2-cyano-5-(2-chloro-4-trifluoromethylphenoxy)phenoxy]propionate]
herbicidal activity, Plants d [1, 2]: 5
herbicidal activity, Plants d [1, 3]: 5
herbicidal activity, Plants j (Soybean; Glycine max; [2]): 3
herbicidal activity, Plants j (Soybean; Glycine max; [3]): 5
herbicidal activity, Plants f (Astragalus sinicus; [2]): 4
herbicidal activity, Plants f (Astragalus sinicus; [3]): 5
herbicidal activity, Plants g (Abutilon theophrosti; [2]): 5
herbicidal activity, Plants g (Abutilon theophrosti; [3]): 5
herbicidal activity, Plants i (Xanthium strumarium; [2]): 4
herbicidal activity, Plants i (Xanthium strumarium; [3]): 5
herbicidal activity, Plants k (Corn; Zea mays; [2]): 2
herbicidal activity, Plants k (Corn; Zea mays; [3]): 5
herbicidal activity, Plants h (Solanum nigrum; [2]): 5
herbicidal activity, Plants h (Solanum nigrum; [3]): 5
herbicidal activity, Plants c (Sorghum halepense; [2]): 2
herbicidal activity, Plants c (Sorghum halepense; [3]): 5
herbicidal activity, Plants a (Digitaria adscendens; [2]): 3
herbicidal activity, Plants a (Digitaria adscendens; [3]): 5
herbicidal activity, Plants e (Amaranthus mangostanus; [2]): 5
herbicidal activity, Plants e (Amaranthus mangostanus; [3]): 5
herbicidal activity, Plants b (Setaria viridis; [2]): 3
herbicidal activity, Plants b (Setaria viridis; [3]): 4

COC(=O)[C@H](C)Oc1cc(Oc2ccc(C(F)(F)F)cc2Cl)ccc1C#N [S-enantiomer (1), S-enantiomer of methyl α-[2-cyano-5-(2-chloro-4-trifluoromethylphenoxy)phenoxy]propionate, reference compound]
herbicidal activity, Plants d [1, 3]: 1
herbicidal activity, Plants j (Soybean; Glycine max; [3]): 1
herbicidal activity, Plants f (Astragalus sinicus; [3]): 1
herbicidal activity, Plants g (Abutilon theophrosti; [3]): 1
herbicidal activity, Plants i (Xanthium strumarium; [3]): 0
herbicidal activity, Plants k (Corn; Zea mays; [3]): 0
herbicidal activity, Plants h (Solanum nigrum; [3]): 2
herbicidal activity, Plants c (Sorghum halepense; [3]): 1
herbicidal activity, Plants a (Digitaria adscendens; [3]): 1
herbicidal activity, Plants e (Amaranthus mangostanus; [3]): 0
herbicidal activity, Plants b (Setaria viridis; [3]): 0

CCOC(=O)C(C)Oc1cc(Oc2ccc(C(F)(F)F)cc2Cl)ccc1C#N (stereo not drawn) [(2), ethyl α-[2-cyano-5-(2-chloro-4-trifluoromethylphenoxy)phenoxy]propionate]
herbicidal activity, Plants d [1, 2]: 5
herbicidal activity, Plants d [1, 3]: 5
herbicidal activity, Plants j (Soybean; Glycine max; [2]): 4
herbicidal activity, Plants j (Soybean; Glycine max; [3]): 5
herbicidal activity, Plants f (Astragalus sinicus; [2]): 4
herbicidal activity, Plants f (Astragalus sinicus; [3]): 5
herbicidal activity, Plants g (Abutilon theophrosti; [2]): 5
herbicidal activity, Plants g (Abutilon theophrosti; [3]): 5
herbicidal activity, Plants i (Xanthium strumarium; [2]): 5
herbicidal activity, Plants i (Xanthium strumarium; [3]): 5
herbicidal activity, Plants k (Corn; Zea mays; [2]): 4
herbicidal activity, Plants k (Corn; Zea mays; [3]): 5
herbicidal activity, Plants h (Solanum nigrum; [2]): 5
herbicidal activity, Plants h (Solanum nigrum; [3]): 5
herbicidal activity, Plants c (Sorghum halepense; [2]): 3
herbicidal activity, Plants c (Sorghum halepense; [3]): 5
herbicidal activity, Plants a (Digitaria adscendens; [2]): 3
herbicidal activity, Plants a (Digitaria adscendens; [3]): 4
herbicidal activity, Plants e (Amaranthus mangostanus; [2]): 3
herbicidal activity, Plants e (Amaranthus mangostanus; [3]): 5
herbicidal activity, Plants b (Setaria viridis; [2]): 3
herbicidal activity, Plants b (Setaria viridis; [3]): 4

COC(=O)C(C)Oc1cc(Oc2ccc(C(F)(F)F)cc2Cl)ccc1C#N (racemic) [Racemic (1), racemic methyl α-[2-cyano-5-(2-chloro-4-trifluoromethylphenoxy)phenoxy]propionate, reference compound]
herbicidal activity, Plants d [1, 4]: 5
herbicidal activity, Plants d [1, 3]: 5
herbicidal activity, Plants j (Soybean; Glycine max; [4]): 4
herbicidal activity, Plants j (Soybean; Glycine max; [3]): 4
herbicidal activity, Plants f (Astragalus sinicus; [4]): 5
herbicidal activity, Plants f (Astragalus sinicus; [3]): 5
herbicidal activity, Plants g (Abutilon theophrosti; [4]): 5
herbicidal activity, Plants g (Abutilon theophrosti; [3]): 5
herbicidal activity, Plants i (Xanthium strumarium; [4]): 5
herbicidal activity, Plants i (Xanthium strumarium; [3]): 5
herbicidal activity, Plants k (Corn; Zea mays; [4]): 4
herbicidal activity, Plants k (Corn; Zea mays; [3]): 5
herbicidal activity, Plants h (Solanum nigrum; [4]): 5
herbicidal activity, Plants h (Solanum nigrum; [3]): 5
herbicidal activity, Plants c (Sorghum halepense; [4]): 2
herbicidal activity, Plants c (Sorghum halepense; [3]): 5
herbicidal activity, Plants a (Digitaria adscendens; [4]): 3
herbicidal activity, Plants a (Digitaria adscendens; [3]): 4
herbicidal activity, Plants e (Amaranthus mangostanus; [4]): 5
herbicidal activity, Plants e (Amaranthus mangostanus; [3]): 5
herbicidal activity, Plants b (Setaria viridis; [4]): 2
herbicidal activity, Plants b (Setaria viridis; [3]): 3
